Experiment: gradient 5% acetonitrile 3 min, to 50% in 2 min, to 85% in 15 min, held 3 min, 100 µL/min
Conditions: column: Zorbax Extend-C18 2.1 x 50 mm; eluents: water / acetonitrile, 0.1% formic acid
How it was run: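 Mixtures of ~100 pure standards were chromatographed on a Zorbax Extend-C18 column (2.1 × 50 mm, 1.8 μm) at 100 μL/min using water and acetonitrile, each with 0.1% formic acid. Detection used a quadrupole time-of-flight mass spectrometer in positive and negative ionization mode, and data collection spanned 3 months. Retention time was obtained from adduct peaks picked computationally and each checked manually.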

Row | RP-LC retention time [s] | Structure (SMILES)
1 | 636 | COCc1noc(CC2CCOC3(CCN(Cc4sccc4C)CC3)C2)n1 (stereo not given)
2 | 945 | CCS(=O)(=O)c1ccc2c(c1)N(Cc1nc(-c3ccc(C)cc3)no1)C(=O)CO2
3 | 705 | CN(CC#N)C(=O)Cn1c(=O)c2cccn2c2ccccc21
4 | 930 | Cc1ccc2c(c1)N(S(C)(=O)=O)CCC(C(=O)Nc1ccc(F)cc1)O2 (stereo not given)
5 | 935 | CCCCC(C)C(=O)NC1CCN(C2=NS(=O)(=O)C(c3ccc(C)cc3)=C2C)CC1 (stereo not given)
6 | 710 | CCOC(=O)C1CCN(C(=O)C2CCCN2S(=O)(=O)c2cc3c(cc2Cl)NC(=O)CO3)CC1 (stereo not given)
7 | 822 | O=C(c1ccco1)N1CCC(c2nc(-c3ccccc3)no2)C1 (stereo not given)
8 | 696 | CCOc1ccc(NC(=O)N2CCC(c3nc(C(=O)N(C)C)c(C)o3)CC2)cc1
9 | 1030 | Cc1ccc(CN(C(=O)COc2cc(C)c(Cl)c(C)c2)C2CCS(=O)(=O)C2)o1 (stereo not given)
10 | 645 | N#Cc1cccc(-c2cn3c(n2)N(C(=O)c2ccco2)CCC3)c1
11 | 848 | CCN(C(C)=O)c1nc(-c2ccc(C3CCCCC3)cc2)cs1
12 | 767 | CCc1cc(=O)n(CC(=O)Nc2ccc(C)cc2C)c(N2CCOCC2)n1
13 | 707 | CCc1cccc(NC(=O)C2CC(=O)N(c3ccc4c(c3)CCN4C(C)=O)C2)c1 (stereo not given)
14 | 749 | CCc1ccc(CNC(=O)C2CCN(Cc3cn(C)c4ccc(OC)cc34)CC2)cc1
15 | 831 | Cc1ccc(CN2CCN(CC(=O)Nc3nc(-c4ccc(C)c(C)c4)cs3)CC2)cc1
16 | 774 | Cc1ccccc1NC(=O)Cn1nc(N2CCOCC2)c2ccccc2c1=O
17 | 650 | CCc1nn2c(CNC(=O)c3ccccc3Cl)c(C)nc2s1
18 | 1050 | COC(=O)c1ccc(C2Nc3ccc(C)cc3[C@H]3OCC[C@@H]23)cc1 (stereo not given in full)
19 | 865 | CCN1C(=O)c2ccccc2Sc2cc(-c3noc(CNC(=O)c4ccco4)n3)ccc21
20 | 701 | O=C(c1ccsc1)N1CCOc2ccc(N3CCOCC3)cc2C1
21 | 861 | CCS(=O)(=O)N1CC(=O)N(c2cc(C)ccc2C)C(C)(C(=O)NCc2ccc(F)cc2)C1 (stereo not given)

Row | RP-LC retention time [s] | Structure (SMILES)
22 | 675 | Cc1ncc2c(n1)CCN(C(=O)c1ccc(Br)cc1)C2
23 | 805 | CCCc1ccc(S(=O)(=O)N2CCN(c3cnn4c(C)nnc4c3)CC2)cc1
24 | 755 | COc1ccccc1CNC(=O)C1CCc2nc(N3CCCCC3)ncc2C1 (stereo not given)
25 | 885 | Cc1[nH]c(C(=O)N2CCCC(C(=O)NCc3cccc(Cl)c3)C2)c(C)c1C(=O)OC(C)C (stereo not given)
26 | 822 | COc1ccc(C2(C(=O)N3CCCC(c4nc(C5CCOCC5)no4)C3)CC2)cc1 (stereo not given)
27 | 797 | Cc1ccccc1CC(=O)N1CCCC1c1c(C)noc1C (stereo not given)
28 | 614 | COc1ccc(NC(=O)CN2CCc3[nH]c4c(C)ccc(C)c4c(=O)c3C2)cc1OC
29 | 864 | CCC(=O)N(CC(=O)N(Cc1ccc2c(c1)OCO2)Cc1sccc1C)CC1CCCO1 (stereo not given)
30 | 739 | COc1ccccc1CCNC(=O)CSc1nc(=O)n(Cc2ccco2)c2c1CCC2
31 | 730 | O=C(Nc1ccc(OCC(=O)N2CCN(c3ccccc3)CC2)nc1)C1CC1
32 | 623 | CCN1C(=O)NC(c2ccc(C)cc2C)C2=C1CN(CCC(=O)N1CCCC1)C2=O (stereo not given)
33 | 1020 | Cc1ccc(S(=O)(=O)N2C[C@@H](F)C[C@H]2C(=O)N2CCc3ccccc3C2)cc1Cl
34 | 755 | O=C(Cn1ncc2c(c1=O)N(C1CC1)C(=O)CS2)NCCc1ccc(Cl)cc1
35 | 588 | CN(C)C(=O)c1ccc2c(c1)nc(CN1CCN(C(=O)c3cccs3)CC1)n2C
36 | 794 | Cc1ccc(CNC(=O)C2CCN(S(=O)(=O)c3ccc4c(c3)NC(=O)CO4)CC2)cc1
37 | 860 | O=S(=O)(NCc1ccccc1)c1ccc2c(c1)-c1oncc1CO2
38 | 551 | Cn1c(C2CCN(C(=O)Cc3ccc(Cl)cc3)C2)nc2ccncc21 (stereo not given)
39 | 999 | Cc1c(-c2noc(-c3ccc4c(c3)OCO4)n2)nnn1Cc1ccc(F)cc1
40 | 692 | Cc1ccc(NC(=O)CCC2CCN(c3cc(NC4CC4)ncn3)CC2)cc1
41 | 1200 | CCn1c(=O)oc2cc(-c3noc(-c4ccc(C)c(F)c4)n3)ccc21

Continued, molecule first:

Row | Structure (SMILES) | RP-LC retention time [s]
42 | Cc1[nH]c(=O)[nH]c(=O)c1S(=O)(=O)N1CCCC1 | 583
43 | O=C(Nc1ccc(F)cc1)c1ccc(Cl)s1 | 908
44 | Cc1ccc(S(=O)(=O)N2C(=O)CCC2C(=O)Nc2cccc3ccccc23)cc1 (stereo not given) | 933
45 | O=C(CSc1ccc(-n2cccn2)nn1)NCc1cccs1 | 681
46 | O=C(NC1CCc2ccccc21)C1CCCN(c2ncnc3c2oc2ccccc23)C1 (stereo not given) | 816
47 | COC(=O)c1cc2c(=O)n(-c3ccccc3Cl)ccc2nc1C | 830
48 | Cc1sc(-c2cc(C(F)(F)F)on2)cc1S(=O)(=O)N1CCC2(CC1)OCCO2 | 1120
49 | Cc1ccccc1-c1nc(-c2cccc(-c3ccnn3C)c2)no1 | 1220
50 | CCOc1ccc(-c2ccc(N3CCN(C(=O)Cc4noc5ccccc45)CC3)nn2)cc1 | 672
51 | Cc1c(C(=O)N2CC(C)CC(C)C2)sc2ncn(CC(=O)N3CCC(C)CC3)c(=O)c12 (stereo not given) | 891
52 | Cc1sc(C)c(S(=O)(=O)NCc2ccco2)c1-c1cc(C(F)(F)F)on1 | 1060
53 | O=C(Nc1nc(-c2ccc(Br)cc2)cs1)c1cccc(-n2cnnc2)n1 | 884
54 | CCCCNC(=O)c1nc(Nc2cccc(C)c2)c2ccccc2n1 | 858
55 | COc1ccc(-c2nn3c(N4CCN(c5ccccn5)CC4)cc(C)nc3c2C)cc1OC | 606
56 | COc1cc(C2OC(c3cccnc3)=NN2C(C)=O)cc(OC)c1OC (stereo not given) | 700
57 | CC(C)n1c(=O)c(Nc2cccc(C(F)(F)F)c2)nc2ccncc21 | 772
58 | Cc1nn(CC(=O)Nc2ccc(Cl)cc2F)c(=O)c2noc(C)c12 | 796
59 | CCOC(C)C(/C=N/NC(N)=S)=N/NC(N)=S (stereo not given) | 654
60 | CCCN(C)c1nccn2c(=O)n(CC(=O)Nc3cccc(C(F)(F)F)c3)nc12 | 753
61 | CCn1ccc2c(cc(C(=O)Nc3ccc(Cl)cc3)n2C)c1=O | 819
62 | Cc1cnc(C)n1CC1CCN(C(=O)C2CCC2)C1 (stereo not given) | 565
63 | CCOC(=O)N1CCN(S(=O)(=O)c2cn(C)nc2C)CC1 | 644
64 | O=C(NCc1nc2ccccc2[nH]1)c1coc(NC(=O)c2cccs2)n1 | 556
65 | CNS(=O)(=O)c1cccnc1Nc1ccc(F)cc1 | 863
66 | O=C(CCc1c(-c2ccc(F)cc2)nc2ccccn12)Nc1cc(F)ccc1F | 697

Row | Structure (SMILES) | RP-LC retention time [s]
67 | Clc1cccc(CN2CCc3nc(N4CCN(c5ccccc5)CC4)ncc3C2)c1 | 775
68 | COc1ccc(NC(=O)N2CCc3c(c(-c4nnc(-c5ccc(F)cc5)o4)nn3C)C2)cc1OC | 766
69 | Cc1nn(-c2ccc(Cl)cc2)c2sc(C(=O)O)cc12 | 1010
70 | O=C(Nc1ccccc1)N1CCN(c2ncccc2-c2nnc(C3CC3)o2)CC1 | 750
71 | Cc1cc(C)n(CCNC(=O)c2nc3ccccc3s2)n1 | 708
72 | O=C(Nc1cccn2ncnc12)c1cccs1 | 690
73 | Cc1ccc(C2(O)C(=O)N(CC(=O)Nc3ccccc3F)c3ccccc32)cc1 (stereo not given) | 664
74 | CCn1cc(C2=CCN(C(=O)Nc3ccc(OC)cc3)CC2)c2cccnc21 | 811
75 | Cc1ccccc1Nc1c(-c2ccc(N(C)C)cc2)nc2ccc(Cl)cn12 | 815
76 | NC(=O)c1cc(-c2ccccc2)sc1NC(=O)c1cc(Cl)sc1Cl | 1180
77 | Cc1c2c(nn1-c1ccc(SCC(=O)NC(C)C)nn1)CCC2 | 841
78 | COC(=O)c1ccc(C2CC(=O)NC3=C2C(=O)CC(c2ccccc2Cl)C3)cc1 (stereo not given) | 881
79 | c1ccc2c(c1)-c1cccc3cncc-2c13 | 897
80 | Cc1ccc(NC(=O)Cn2nc3c(Oc4ccc(C(C)C)cc4)nccn3c2=O)c(C)c1 | 1050
81 | CC(NC(=O)C1=CCN(Cc2cccc(F)c2)CC1)c1ccccc1 (stereo not given) | 662
82 | Cc1ccc(Nc2nc(C)cc(N3CCN(C(=O)c4ccc(Br)o4)CC3)n2)cc1 | 715
83 | COCC1(O)CCOC2(CCN(C(=O)C3CCCCC3)CC2)C1 (stereo not given) | 656
84 | Cc1nc(C)c(C(=O)N/N=C/c2ccc(N(CCCl)CCCl)cc2)s1 | 942
85 | CCc1nnc([C@@H]2CC(F)(F)CN2C(=O)COc2ccc(F)cc2)o1 | 800
86 | COCCn1c(C2CCN(S(=O)(=O)c3ccc(Cl)cc3)C2)nc2cccnc21 (stereo not given) | 806
87 | CC(C)NC(=O)CCn1c(=O)c2ccccc2n2c(=O)n(Cc3ccccc3)nc12 | 801
88 | O=C(Nc1cc(Cl)ccc1F)c1cnc(-c2ccc(F)cc2)nc1-c1ccncc1 | 1050
89 | COCCCNC(=O)C1(C)Cn2nc(-c3ccccc3)cc2C(=O)N1c1ccc(F)cc1 (stereo not given) | 806
90 | Cc1cccc(S(=O)(=O)Nc2cccn3ncnc23)c1 | 729

— the METLIN SMRT retention time set (Domingo-Almenara et al. 2019)
